Experimental data as given in patent publication US9925189B2, “Heterocyclic receptor agonists for the treatment of diabetes and metabolic disorders” (CymaBay Therapeutics, Inc., priority 2006, dated 2018).

Target: T1, IC-GPCR2 (Homo sapiens, UniProt Q8TDV5, S309L)
T1 construct: expressed in transfected cells
T1 sequence (Q8TDV5 1-335 S309L): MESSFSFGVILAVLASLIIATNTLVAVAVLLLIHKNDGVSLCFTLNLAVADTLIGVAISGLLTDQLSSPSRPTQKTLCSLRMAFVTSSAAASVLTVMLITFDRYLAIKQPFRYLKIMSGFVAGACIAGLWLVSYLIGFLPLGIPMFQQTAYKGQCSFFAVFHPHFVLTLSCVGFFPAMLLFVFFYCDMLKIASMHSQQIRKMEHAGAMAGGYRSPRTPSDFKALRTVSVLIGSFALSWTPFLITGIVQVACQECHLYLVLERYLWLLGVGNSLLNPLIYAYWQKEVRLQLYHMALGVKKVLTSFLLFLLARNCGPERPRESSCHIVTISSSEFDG
Experiment: Stimulation of cAMP in CHO cells stably expressing IC-GPCR2 (HTRF cAMP assay)
Assay type: cell-based
Conditions: 0.5 h, 30 minutes, IC-GPCR2 stably expressing CHO cells, read-out: Activity at 10 uM (% change in FRET signal from DMSO control)
Method: This assay was developed using a stable cell line expressing IC-GPCR-2, generated as follows. IC-GPCR2 (SEQ ID NO:1) was cloned into Gateway pDEST 40vector (Invitrogen), using the Gateway cloning system (invitrogen) according to the manufacturer's instructions. A stable cell line was generated by transfecting a 10 cm plate of CHO cells (source) with 8 ug of this construct using Transit-CHO transfection kit (Mirus). CHO cells were plated the day prior to transfection at a density of 3,000,000 cells/plate. Clones were selected using the antibiotic G418 at 500 ug/ml. 23 clones were picked and assayed for the expression of the receptor by measuring changes in intracellular cAMP levels in response to an IC-GPCR2 agonist.
To measure cAMP activity in response to IC-GPCR2 agonist, the clones were plated in 96 well plates at 17500 cells per well. On the day after plating, cells were incubated with the IC-CPCR2 agonist at […] for 30 minutes in Ham's F12 Media (Gibco) with 0.04% DMSO. cAMP was measured using the cAMP dynamic kit from Cis Bio (Bedford, Mass.) according to the manufacturer's instructions. Briefly, cells were lysed, and cAMP levels determined by competitive immunoassay using D2 labeled cAMP, and europium cryptate tagged anti cAMP antibody. When in close proximity, the D2 and europium cryptate undergo fluorescence resonance energy transfer (FRET), which is measured as a fluorescence ratio (665 nm/620 nm). Unlabelled cAMP in the cell lysate competed with the D2 labeled cAMP for the europium crypate labeled antibody. The resulting decrease in FRET signal corresponded to intracellular cAMP levels. Fluorescence was read on a BMG Labtech PHERAstar, software version 1.50.
Compounds were dissolved in 100% DMSO to a concentration of […] to provide stock solutions. To determine activity against IC-GPCR2, compounds were incubated with IC-GPCR2 stably expressing cells (described above), at 6-8 concentrations ranging from 0.00003 to 10 micromolar, in 96 well plates, in 50 ul of Hams F12 media for 30 minutes. Cells were plated at 17500 cells per well 1 day before running the assay. All compounds were also screened against the parental CHO cells. cAMP was measured using the cAMP dynamic kit from Cis Bio (Bedford, Mass.), according to the manufacturer's instructions. Briefly, cells were lysed and cAMP levels determined by competitive immunoassay using D2 labeled cAMP, and europium cryptate tagged anti cAMP antibody. When in close proximity, the D2 and europium cryptate undergo fluorescence resonance energy transfer (FRET), which is measured as a fluorescence ratio (665 nm/620 nm). Unlabelled cAMP in the cell lysate competed with the D2 labeled cAMP for the europium crypate labeled antibody. The resulting decrease in FRET signal corresponded to intracellular cAMP levels.
Activities of compounds disclosed in Table 1 and Table 2 below are expressed as the % change in FRET signal from DMSO control. “*” no activity observed when tested at 10 micromolar but no higher concentrations were tested. NT indicates the compound was not tested at the indicated concentration.

Structure (SMILES)	activation at 10 µM [%]
FC(F)(F)c1ccc(N2CCC(c3nc(COc4ccc(-n5cnnn5)cc4)cs3)CC2)nc1 [Example 71, 4-[4-(4-Tetrazol-1-yl-phenoxymethyl)-thiazol-2-yl]-5′-trifluoromethyl-3,4,5,6-tetrahydro-2H-[1,2′]bipyridinyl]	88
CCc1cnc(N2CCC(c3nc(COc4ccc(-n5cccc5)cc4)cs3)CC2)nc1 [Example 160, 5-Ethyl-2-{4-[4-(4-pyrrol-1-yl-phenoxymethyl)-thiazol-2-yl]-piperidin-1-yl}-pyrimidine]	77
CCc1cnc(N2CCC(c3nc(COc4ccc(-n5cnnn5)cc4)cs3)C2)nc1 (centres unmarked) [Example 103, 5-Ethyl-2-{3-[4-(4-tetrazol-1-yl-phenoxymethyl)-thiazol-2-yl]-pyrrolidin-1-yl}-pyrimidine]	79
CCc1cnc(N2CCC(c3nc(COc4ccc(-n5cnnn5)cc4C(F)(F)F)cs3)CC2)nc1 [Example 119, 5-Ethyl-2-{4-[4-(4-tetrazol-1-yl-2-trifluoromethyl-phenoxymethyl)-thiazol-2-yl]-piperidin-1-yl}-pyrimidine]	53
C[C@H]1CN(C(=O)OC(C)(C)C)CC[C@H]1c1nc(COc2ccc(-n3cnnn3)cc2)cs1 (stereo in doubt) [Example 144, 3-Methyl-4-[4-(4-tetrazol-1-yl-phenoxymethyl)-thiazol-2-yl]-piperidine-1-carboxylic acid tert-butyl ester]	81
COc1ccc(-c2cnc(N3CCC(c4nc(COc5ccc(-n6cnnn6)cc5)cs4)CC3)nc2)cc1 [Example 66, 5-(4-Methoxy-phenyl)-2-{4-[4-(4-tetrazol-1-yl-phenoxymethyl)-thiazol-2-yl]-piperidin-1-yl}-pyrimidine]	57
CC(C)(C)OC(=O)N1CCC(O)(c2nc(COc3ccc(S(C)(=O)=O)cc3)cs2)CC1 [Example 86, 4-Hydroxy-4-[4-(4-methanesulfonyl-phenoxymethyl)-thiazol-2-yl]-piperidine-1-carboxylic acid tert-butyl ester]	49
CCNC(=O)N1CCC(c2nc(COc3ccc(-n4cnnn4)cc3)cs2)CC1 [Example 46, 4-[4-(4-Tetrazol-1-yl-phenoxymethyl)-thiazol-2-yl]-piperidine-1-carboxylic acid ethylamide]	30
c1cc(-n2cnnn2)ccc1OCc1csc(C2CCN(c3cnc(-n4cnnn4)cn3)CC2)n1 [Example 187, 2-Tetrazol-1-yl-5-{4-[4-(4-tetrazol-1-yl-phenoxymethyl)-thiazol-2-yl]-piperidin-1-yl}-pyrazine]	75
CC(C)(C)OC(=O)N1CCC(c2nc(COc3ccc(S(C)(=O)=O)cc3F)cs2)CC1 [Example 18, 4-[4-(2-Fluoro-4-methanesulfonyl-phenoxymethyl)-thiazol-2-yl]-piperidine-1-carboxylic acid tert-butyl ester]	72
CC(C)(C)C(=O)CN1CCC(c2nc(COc3ccc(-n4cnnn4)cc3)cs2)CC1 [Example 151, 3,3-Dimethyl-1-{4-[4-(4-tetrazol-1-yl-phenoxymethyl)-thiazol-2-yl]-piperidin-1-yl}-butan-2-one]	54
Fc1cc(-n2cnnn2)ccc1OCc1csc(C2CCN(c3ncc(C(F)(F)F)cc3Cl)CC2)n1 [Example 194, 3′-Chloro-4-[4-(2-fluoro-4-tetrazol-1-yl-phenoxymethyl)-thiazol-2-yl]-5′-trifluoromethyl-3,4,5,6-tetrahydro-2H-[1,2′]bipyridinyl]	29
FC(F)(F)c1cnc(N2CCC(c3nc(COc4ccc(-n5cnnn5)nc4)cs3)CC2)nc1 [Example 185, 2-{4-[4-(6-Tetrazol-1-yl-pyridin-3-yloxymethyl)-thiazol-2-yl]-piperidin-1-yl}-5-trifluoromethyl-pyrimidine]	83
CCc1cnc(N2CC[C@@H](c3nc(COc4ccc(-n5cnnn5)cc4)cs3)[C@@H](C)C2)nc1 (stereo in doubt) [Example 199, 5-Ethyl-2-{3-methyl-4-[4-(4-tetrazol-1-yl-phenoxymethyl)-thiazol-2-yl]-piperidin-1-yl}-pyrimidine]	78
CC(C)(C)OC(=O)N1CCN(c2nc(COc3ccc(S(C)(=O)=O)cc3)cs2)CC1 [Example 91, 4-[4-(4-Methanesulfonyl-phenoxymethyl)-thiazol-2-yl]-piperazine-1-carboxylic acid tert-butyl ester]	28
CCc1cnc(N2CCC(c3nc(COc4ccc(-n5cnnn5)nc4)cs3)CC2)nc1 [Example 182, 5-Ethyl-2-{4-[4-(6-tetrazol-1-yl-pyridin-3-yloxymethyl)-thiazol-2-yl]-piperidin-1-yl}-pyrimidine]	78
CCc1cnc(N2CCC(c3nc(COc4ccc(S(C)(=O)=O)cc4)co3)CC2)nc1 [Example 123, 5-Ethyl-2-{4-[4-(4-methanesulfonyl-phenoxymethyl)-oxazol-2-yl]-piperidin-1-yl}-pyrimidine]	72
Cc1cc(-n2cnnn2)ccc1OCc1csc(C2CCN(C(=O)OC(C)(C)C)CC2)n1 [Example 118, 4-[4-(2-Methyl-4-tetrazol-1-yl-phenoxymethyl)-thiazol-2-yl]-piperidine-1-carboxylic acid tert-butyl ester]	64
CCc1cnc(N2CCC(c3nc(COCc4ccc(S(C)(=O)=O)cc4)cs3)CC2)nc1 [Example 203, 5-Ethyl-2-{4-[4-(4-methanesulfonyl-benzyloxymethyl)-thiazol-2-yl]-piperidin-1-yl}-pyrimidine]	76
CC(C)(C)OC(=O)N1CCC(c2nc(CNc3ccc(S(C)(=O)=O)cc3)cs2)CC1 [Example 138, 4-{4-[(4-Methanesulfonyl-phenylamino)-methyl]-thiazol-2-yl}-piperidine-1-carboxylic acid tert-butyl ester]	64
CCc1cnc(N2CCC(c3nc(COc4ccc(NS(C)(=O)=O)cc4)cs3)CC2)nc1 [Example 117, N-(4-{2-[1-(5-Ethyl-pyrimidin-2-yl)-piperidin-4-yl]-thiazol-4-ylmethoxy}-phenyl)-methanesulfonamide]	65
CS(=O)(=O)c1ccc(OCc2csc(C3CCN(c4ncccn4)CC3)n2)cc1 [Example 47, 2-{4-[4-(4-Methanesulfonyl-phenoxymethyl)-thiazol-2-yl]-piperidin-1-yl}-pyrimidine]	51
CC(C)COC(=O)N1CCC(c2nc(COc3ccc(S(C)(=O)=O)cc3)cs2)CC1 [Example 24, 4-[4-(4-Methanesulfonyl-phenoxymethyl)-thiazol-2-yl]-piperidine-1-carboxylic acid isobutyl ester]	58
CS(=O)(=O)c1ccc(OCc2csc(C3CCN(c4nc5ccccc5o4)CC3)n2)cc1 [Example 74, 2-{4-[4-(4-Methanesulfonyl-phenoxymethyl)-thiazol-2-yl]-piperidin-1-yl}-benzooxazole]	17
CCc1cnc(N2CCC(c3nc(CNc4ccc(-n5cnnn5)cc4)cs3)CC2)nc1 [Example 161, {2-[1-(5-Ethyl-pyrimidin-2-yl)-piperidin-4-yl]-thiazol-4-ylmethyl}-(4-tetrazol-1-yl-phenyl)-amine]	79
CCN(CC)C(=O)N1CCC(c2nc(COc3ccc(-n4cnnn4)cc3)cs2)CC1 [Example 45, 4-[4-(4-Tetrazol-1-yl-phenoxymethyl)-thiazol-2-yl]-piperidine-1-carboxylic acid diethylamide]	84
